Results: patent US20200123190A1

System: human pancreatic cancer cells (MIA-Paca-2)
Assay: Cell growth inhibitory effect, alamarBlue
Type: cell-based
Conditions: MIA-Paca-2, cultured for 3 days
Experimental: Each of the test compounds (DMSO solutions in various concentrations) was added to 100 μL of a culture solution containing human pancreatic cancer cells (MIA-Paca-2) (cell count: about 5×10^3 cells) and cultured for 3 days. The cell growth inhibitory effect was investigated by fluorescence color development using alamarBlue reagent. Each of their IC50 values was determined.

IC50 (Homo sapiens, 72 h) | Compound | IC50
– | O,′-Di (4-fluoro)benzyl 2′-deoxy-2′,2′-difluoro-5′-cytidylate [Compound (1)] | 9.8 µM
– | O,O′— Di(4-bromo)benzyl 2′-deoxy-2′,2′-difluoro-5′-cytidylate [Compound (3)] | 21.8 µM
– | O,O′— Di (4-chloro)benzyl 2′-deoxy-2′,2′-difluoro-5′-cytidylate [Compound (2)] | 18 µM
7.4 µM | Nc1ccn([C@@H]2O[C@H](CO)[C@@H](O)C2(F)F)c(=O)n1 [Gemcitabine, 2′-Deoxy-2′,2′-difluorocytidine, reference compound] | –
